Here are results for 14 molecules from PMC6277434, “Discovery of a potent HMG-CoA reductase degrader that eliminates statin-induced reductase accumulation and lowers cholesterol” (Nature Communications, 2018).

The target in test [1] is T1, HMGCR (TM1-8)-GFP (Cricetulus griseus, UniProt P00347).
T1 sequence (P00347 1-346): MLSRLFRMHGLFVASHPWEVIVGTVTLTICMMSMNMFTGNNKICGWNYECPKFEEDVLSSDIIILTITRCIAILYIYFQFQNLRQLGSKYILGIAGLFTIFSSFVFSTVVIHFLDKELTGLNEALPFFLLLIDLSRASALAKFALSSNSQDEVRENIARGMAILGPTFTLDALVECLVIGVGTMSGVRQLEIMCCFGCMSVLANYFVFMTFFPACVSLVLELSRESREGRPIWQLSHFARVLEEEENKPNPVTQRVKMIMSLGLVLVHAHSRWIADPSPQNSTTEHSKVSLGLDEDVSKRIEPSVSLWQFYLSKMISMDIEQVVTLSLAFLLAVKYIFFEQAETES
In words: HMGCR (TM1-8)-GFP fluorescent assay (high-content imaging) in CHG cells.
Description: (§1) We thus generated a cell line stably expressing the transmembrane domain of HMGCR fused with green fluorescent protein (GFP) as a reporter (HMGCR (TM1-8)-GFP) (Fig. 2a).
(§2) CHO-7 cells were transfected with pCMV-HMGCR (TM1-8)-GFP using FuGENE HD. Twenty-four hours, cells were switched to medium B supplemented with 5% FBS and selected in the presence of 1 mg ml^−1 G418 for 2 weeks. Surviving colonies were isolated and confirmed for GFP expression by immunoblotting and immunofluorescence. The resulting CHO-7/HMGCR (TM1-8)-GFP stable cell line (CHG) was maintained in medium B supplemented with 5% FBS and 200 μg ml^−1 G418.
(§3) CHG cells were treated as described in figure legends. Briefly, cells were seeded at day 0 in 96-well black plate (3904, Corning) at a density of 1.5 × 10^4 cells per well, in medium B containing with 5% LPDS. Day 1, corresponding compounds were added as figure legends described in medium B with 5% LPDS, 1 μM lovastatin, 50 μM sodium mevalonate for 16 h. Then cells were fixed with 4% paraformaldehyde for 20 min, washed with PBS for three times, and stained with 2 μg ml^−1 Hoechst 33342.
(§4) The fluorescent images (GFP and Hoechst channel) were captured using an Operatta High-Content Imaging System (PerkinElmer) with a ×20 objective. The cytoplasmic GFP fluorescence was measured with the Harmony Software (PerkinElmer). Five random selected filed per well were captured, and about 3000 cells were used to determine the mean cytoplasmic GFP fluorescent intensity per cell after subtracting background GFP intensity. The average GFP intensity of DMSO-treated cells was defined as 100.

Test [2] addresses T1, HMGCR (TM1-8)-GFP.
Description: as §1, §2, §3, §4
Where [3] appears, read: read-out: Mean (HMGCR (TM1-8)-GFP signal relative to 0 μM = 100).
The mark [4] stands for this setting: 16 h, read-out: HMGCR (TM1-8)-GFP fluorescent intensity, mean.

Like-named read-outs stand apart in the source and are kept apart here.

Consider `C[C@H](CCCC(=O)O)C1CCC2C3C(CC[C@@]21C)[C@@]1(C)CC[C@H](O)C(C)(C)C1=C[C@@H]3O` (some centres unmarked) [Compound 73], for which, at HMGCR (TM1-8)-GFP [1] (setting [3]), the remaining activity at 0.156 µM was 97%, the remaining activity at 0.313 µM came to 97.9%, the remaining activity at 0.625 µM came to 97.7% and the remaining activity at 1.25 µM stood at 98.1%. In addition, at HMGCR (TM1-8)-GFP [1] (setting [3]), the remaining activity at 2.5 µM turned out to be 92.6%, the remaining activity at 5 µM came to 87.2% and the remaining activity at 10 µM came to 81.4%. The DC50 on HMGCR (TM1-8)-GFP [2] was 60.6 µM.

For the molecule `CC(O)CCC[C@@H](C)C1CCC2C3C(CC[C@@]21C)[C@@]1(C)CC[C@H](O)C(C)(C)C1=C[C@@H]3O` (some centres unmarked) [Compound 86], at HMGCR (TM1-8)-GFP [1] (setting [3]), the remaining activity at 0.156 µM stood at 96.6%, the remaining activity at 0.313 µM amounted to 88.8%, the remaining activity at 0.625 µM came out at 78.7% and the remaining activity at 1.25 µM worked out at 64.4%. Also, at HMGCR (TM1-8)-GFP [1] (setting [3]), the remaining activity at 2.5 µM is 44.4%, the remaining activity at 5 µM is 28.4% and the remaining activity at 10 µM came to 19.7%. The molecule also yielded a DC50 on HMGCR (TM1-8)-GFP [2] of 2.17 µM.

For `C[C@H](CCC(C)(C)O)C1CCC2C3C(CC[C@@]21C)[C@@]1(C)CC[C@H](O)C(C)(C)C1=C[C@@H]3O` (some centres unmarked) [Compound 56], at HMGCR (TM1-8)-GFP [1] (setting [3]), the remaining activity at 0.156 µM was found to be 88.3%, the remaining activity at 0.313 µM was determined as 94.2%, the remaining activity at 0.625 µM worked out at 92.2% and the remaining activity at 1.25 µM amounted to 79.4%. Moreover, at HMGCR (TM1-8)-GFP [1] (setting [3]), the remaining activity at 2.5 µM turned out to be 78.7%, the remaining activity at 5 µM was 72.2% and the remaining activity at 10 µM was 69.4%. Moreover, the DC50 on HMGCR (TM1-8)-GFP [2] amounted to 52.1 µM.

For `COCCC[C@@H](C)C1CCC2C3C(CC[C@@]21C)[C@@]1(C)CC[C@H](O)C(C)(C)C1=C[C@@H]3O` (some centres unmarked) [Compound 55], at HMGCR (TM1-8)-GFP [1] (setting [3]), the remaining activity at 0.156 µM is 100%, the remaining activity at 0.313 µM was determined as 100%, the remaining activity at 0.625 µM was 83% and the remaining activity at 1.25 µM stood at 63.8%. Further, at HMGCR (TM1-8)-GFP [1] (setting [3]), the remaining activity at 2.5 µM is 43.1%, the remaining activity at 5 µM came out at 28.5% and the remaining activity at 10 µM came out at 21.9%. The DC50 on HMGCR (TM1-8)-GFP [2] is 2.29 µM.

Take `CC(O)CC[C@@H](C)C1CCC2C3C(CC[C@@]21C)[C@@]1(C)CC[C@H](O)C(C)(C)C1=C[C@@H]3O` (some centres unmarked) [Compound 63]: at HMGCR (TM1-8)-GFP [1] (setting [3]), the remaining activity at 0.156 µM came out at 100%, the remaining activity at 0.313 µM came to 97.9%, the remaining activity at 0.625 µM was 86.9% and the remaining activity at 1.25 µM was 73.2%. On HMGCR (TM1-8)-GFP [1] (setting [3]), the remaining activity at 2.5 µM came to 50.1%, the remaining activity at 5 µM is 37.4% and the remaining activity at 10 µM is 21%. The molecule further displayed a DC50 on HMGCR (TM1-8)-GFP [2] of 2.96 µM.

`C=CCC(O)(CC=C)CC[C@@H](C)C1CCC2C3C(CC[C@@]21C)[C@@]1(C)CC[C@H](O)C(C)(C)C1=C[C@@H]3O` (some centres unmarked) [Compound 58]: on HMGCR (TM1-8)-GFP [1] (setting [3]), the remaining activity at 0.156 µM was 106%, the remaining activity at 0.313 µM turned out to be 110%, the remaining activity at 0.625 µM came to 104% and the remaining activity at 1.25 µM was determined as 92.1%. Besides, on HMGCR (TM1-8)-GFP [1] (setting [3]), the remaining activity at 2.5 µM was 68.2%, the remaining activity at 5 µM was 43.8% and the remaining activity at 10 µM came to 25.3%. This molecule displayed a DC50 at HMGCR (TM1-8)-GFP [2] of 4.5 µM.

Take `CC(O)CCCC[C@@H](C)C1CCC2C3C(CC[C@@]21C)[C@@]1(C)CC[C@H](O)C(C)(C)C1=C[C@@H]3O` (some centres unmarked) [Compound 107]: at HMGCR (TM1-8)-GFP [1] (setting [3]), the remaining activity at 0.156 µM is 90.7%, the remaining activity at 0.313 µM was 83.1%, the remaining activity at 0.625 µM is 72.6% and the remaining activity at 1.25 µM is 51.8%. In addition, at HMGCR (TM1-8)-GFP [1] (setting [3]), the remaining activity at 2.5 µM was 26.9%, the remaining activity at 5 µM amounted to 17.1% and the remaining activity at 10 µM is 13.1%. The same molecule came in with a DC50 on HMGCR (TM1-8)-GFP [2] of 1.29 µM.

For `CCC(O)CC[C@@H](C)C1CCC2C3C(CC[C@@]21C)[C@@]1(C)CC[C@H](O)C(C)(C)C1=C[C@@H]3O` (some centres unmarked) [Compound 64], on HMGCR (TM1-8)-GFP [1] (setting [3]), the remaining activity at 0.156 µM was found to be 100%, the remaining activity at 0.313 µM turned out to be 104%, the remaining activity at 0.625 µM was determined as 88.2% and the remaining activity at 1.25 µM was 68.2%. Moreover, at HMGCR (TM1-8)-GFP [1] (setting [3]), the remaining activity at 2.5 µM was determined as 52.2%, the remaining activity at 5 µM amounted to 35.6% and the remaining activity at 10 µM stood at 27%. Besides, the DC50 on HMGCR (TM1-8)-GFP [2] amounted to 3.06 µM.

For the molecule `C[C@H](CCCCC(=O)O)C1CCC2C3C(CC[C@@]21C)[C@@]1(C)CC[C@H](O)C(C)(C)C1=C[C@@H]3O` (some centres unmarked) [Compound 92], on HMGCR (TM1-8)-GFP [1] (setting [3]), the remaining activity at 0.156 µM is 104%, the remaining activity at 0.313 µM was 98.4%, the remaining activity at 0.625 µM amounted to 98.7% and the remaining activity at 1.25 µM is 96.3%. Besides, on HMGCR (TM1-8)-GFP [1] (setting [3]), the remaining activity at 2.5 µM was determined as 87%, the remaining activity at 5 µM came out at 71.8% and the remaining activity at 10 µM came to 58%. Further, the DC50 on HMGCR (TM1-8)-GFP [2] stood at 12.3 µM.

Consider `C=CCC(O)CCC[C@@H](C)C1CCC2C3C(CC[C@@]21C)[C@@]1(C)CC[C@H](O)C(C)(C)C1=C[C@@H]3O` (some centres unmarked) [Compound 88], for which, on HMGCR (TM1-8)-GFP [1] (setting [3]), the remaining activity at 0.156 µM came to 82.3%, the remaining activity at 0.313 µM turned out to be 75.6%, the remaining activity at 0.625 µM came to 67.9% and the remaining activity at 1.25 µM came to 37.1%. In addition, at HMGCR (TM1-8)-GFP [1] (setting [3]), the remaining activity at 2.5 µM is 17.6%, the remaining activity at 5 µM came out at 12% and the remaining activity at 10 µM is 16.6%. This molecule also showed a DC50 on HMGCR (TM1-8)-GFP [2] of 0.91 µM.

Take `C[C@H](CCCCCC(C)(C)O)C1CCC2C3C(CC[C@@]21C)[C@@]1(C)CC[C@H](O)C(C)(C)C1=C[C@@H]3O` (some centres unmarked) [Compound 117]: on HMGCR (TM1-8)-GFP [1] (setting [3]), the remaining activity at 0.156 µM was 92%, the remaining activity at 0.313 µM was determined as 72.4%, the remaining activity at 0.625 µM worked out at 47.7% and the remaining activity at 1.25 µM came to 29.5%. For the same molecule, on HMGCR (TM1-8)-GFP [1] (setting [3]), the remaining activity at 2.5 µM was 20.4%, the remaining activity at 5 µM was determined as 16.1% and the remaining activity at 10 µM came out at 20.4%. At HMGCR (TM1-8)-GFP [2], this molecule gave a DC50 of 0.71 µM.

Consider `C=CCC(O)CCCCC[C@@H](C)C1CCC2C3C(CC[C@@]21C)[C@@]1(C)CC[C@H](O)C(C)(C)C1=C[C@@H]3O` (some centres unmarked) [Compound 126], for which, at HMGCR (TM1-8)-GFP [1] (setting [3]), the remaining activity at 0.156 µM is 76.4%, the remaining activity at 0.313 µM came to 72.3%, the remaining activity at 0.625 µM is 58.7% and the remaining activity at 1.25 µM came to 50.3%. In addition, at HMGCR (TM1-8)-GFP [1] (setting [3]), the remaining activity at 2.5 µM stood at 44.6%, the remaining activity at 5 µM stood at 45.5% and the remaining activity at 10 µM stood at 44.4%. The molecule also displayed a DC50 on HMGCR (TM1-8)-GFP [2] of 2.45 µM.

Consider `CC(C)CCC[C@@H](C)[C@H]1CC[C@H]2[C@@H]3[C@@H](O)C=C4C(C)(C)[C@@H](O)CC[C@]4(C)[C@H]3CC[C@]12C` [Compound 35, 4,4-Dimethyl 7β-hydroxyl cholesterol], for which, on HMGCR (TM1-8)-GFP [1] (setting [4]), the remaining activity at 0.01 µM was 100%, the remaining activity at 0.03 µM worked out at 104%, the remaining activity at 0.1 µM amounted to 87.1% and the remaining activity at 0.3 µM turned out to be 83.8%. At HMGCR (TM1-8)-GFP [1] (setting [4]), the remaining activity at 1 µM was 68.2%, the remaining activity at 3 µM came to 54.5%, the remaining activity at 10 µM amounted to 37% and the remaining activity at 20 µM turned out to be 20%. The same molecule registered a DC50 at HMGCR (TM1-8)-GFP [2] of 3.6 µM.

With `CCC(O)CCCCC[C@@H](C)C1CCC2C3C(CC[C@@]21C)[C@@]1(C)CC[C@H](O)C(C)(C)C1=C[C@@H]3O` (some centres unmarked) [Compound 125], at HMGCR (TM1-8)-GFP [1] (setting [3]), the remaining activity at 0.156 µM turned out to be 83.6%, the remaining activity at 0.313 µM was 77.5%, the remaining activity at 0.625 µM turned out to be 65.3% and the remaining activity at 1.25 µM was 50.2%. On HMGCR (TM1-8)-GFP [1] (setting [3]), the remaining activity at 2.5 µM was 41.6%, the remaining activity at 5 µM came out at 34.7% and the remaining activity at 10 µM came out at 33.6%. This molecule also showed a DC50 at HMGCR (TM1-8)-GFP [2] of 1.83 µM.
